From patent publication US4000310A, “Pharmaceutical compositions containing 6-methyl-3,4-diphenyl-3,4,5,6-tetrahydro-2-pyrone or derivatives thereof” (Union Chimique Continentale-U.C.C, priority 1974, dated 1976) come the findings set out here.

Bounds are passed on as bounds.

The subject of series [1] is mouse. As to the kind of experiment: Hot-plate test on the mouse. Format: in vivo, mouse (male, Swiss NMRI stock). On the procedure: (§1) All the experiments described below were carried out using male rats weighing from 170 to 220 g (Wistar Af stock) and male mice weighing from 18 to 23 g (Swiss NMRI stock).
This test was applied to measure the time taken or animals to react to a painful stimulus. 12 animals were used per point. 15 Minutes after oral administration of MDTP (64 mg/kg) the time taken for mice exposed to the hot-plate to react (by licking their rear paws) was 5.9 seconds, whereas the time taken by the control group was 9.5 seconds (difference significant at the threshold of 0.01).
On the other hand, the effects on this test of an analgesic dose of morphine was not changed -- either by increasing or reducing them -- by MDTP at the same dose.
(Thermal pain tests record how soon the animal reacts.)

Series [2] concerns convulsion-inducing attacks. The series can be described thus: Interaction with convulsion-inducing dose of cardiazol. Format: in vivo. To be noted: 64 mg/kg oral 30 min before cardiazol 160 mg/kg s.c.
The subject of series [3] is mouse. As to the kind of experiment: Observation of the animals, mouse. Format: in vivo, mouse (male, Swiss NMRI stock). On the procedure: as §1
(§2) All the experiments took place in a laboratory with a constant temperature (22° ± 1° C).
(§3) All the experiments were carried out blind (without the experimenter knowing, at the time of the tests, which animals had received the substance presumed active).
(§4) Unless otherwise stated, 10 animals were always used per point.

Series [4] relates to mouse. As to the kind of experiment: Conditioned inhibition, 4 plate test, mouse. The class given is in vivo, mouse (male, Swiss NMRI stock). On the procedure: as §1
A simple conditioned inhibition test was used, the 4 plate test (ARON an Coll, Neuropharmacology 1971, 10, 459-470).

For the next series, the system named is mice. The series can be described thus: Test for antioxotremorine action. Format: in vivo, mouse (male, Swiss NMRI stock). The note with it: mice, 8, 16, 32 or 64 mg/kg i.p. or oral; oxotremorine 0.5 mg/kg i.p. On the procedure: as §1
In mice which had been dosed intraperitoneally or orally with 8, 16, 32 or 64 mg/kg of MDTP, the effects of oxotremorine (0.5 mg/kg given intraperitoneally) were unchanged, as far as hypothermia, tremors, tears, hypersalivation and defecation were concerned.

In series [5] the test system is rat. As to the kind of experiment: Effects of barbiturate hypnotics, rat. To be noted: rat, 16, 32 or 64 mg/kg oral, with pentabarbitone or barbitone sodium. The class given is in vivo, rat (male, Wistar Af stock). As to the method: as §1
For a further series, the system named is rats. The series can be described thus: Test for antireserpine action, rats. The class given is in vivo, rat (male, Wistar Af stock). The note with it: rats, 8, 16, 32 and 64 mg/kg oral; reserpine 2.5 mg/kg i.p. 4 hours before. On the procedure: as §1
The test system of series [6] is mouse. As to the kind of experiment: Effects of barbiturate hypnotics, mouse. The class given is in vivo, mouse (male, Swiss NMRI stock). To be noted: mouse, 16, 32 or 64 mg/kg oral, with pentabarbitone or barbitone sodium. As to the method:
as §1

The subject of series [7] is rat. As to the kind of experiment: Acute toxicity in the rat. Format: in vivo. On the procedure:
as §1, §2, §3, §4
(§5) In the rat, with either oral or intraperitoneal administration, the LD50 of 6-methyl 3,4-diphenyl-3,4,5,6-tetrahydro 2-pyrone was over 300 mg/kg.

Series [8] is described as follows: Acute toxicity in the rat. The class given is in vivo. The note with it: in vivo. On the procedure: as §1, §2, §3, §4, §5

The LD50 is the dose expected to kill half of the subjects tested. Low values mean greater toxicity, high ones lower toxicity. In the case of `CC1CC(c2ccccc2)C(c2ccccc2)C(=O)O1` (stereo not drawn) [MDTP, 6-methyl-3,4-diphenyl-3,4,5,6-tetrahydro-2-pyrone], in the series on mouse [1] (64 mg/kg oral, 15 min after, control 9.5 seconds, significant at 0.01), the “time taken to react (licking rear paws) on hot-plate” value turned out to be 5.9 s. In the series with mouse [1] (MDTP at the same dose), the “change in effects of an analgesic dose of morphine on hot-plate test” value is “not changed”. The “latency of convulsion-inducing attacks” value in [2] is listed as “did not reduce the latency of the convulsion-inducing attacks”. Further, the “diameter of the pupils, rectal temperature” value with mouse [3] (doses below toxic level) is “no change in diameter of the pupils or the rectal temperature”. Further, the “motor incoordination, abnormal or stereotyped movements” value in the series on mouse [3] (doses below toxic level) is listed as “not accompanied by motor incoordination or by abnormal or stereotyped movements”. Moreover, the hyperthermia entry with mouse [3] (doses very close to lethal level) is given as “moderate hyperthermia”. In addition, the toxic signs entry in the series with mouse [3] (in vivo) was “tremors, hyperreactivity to very intense stimuli, interaggressiveness and convulsive phenomena with the rear paws stretched”. Also, the excitation on observation result in the series on mouse [3] (oral or intraperitoneal, from 16 mg/kg, below toxic level) is on record as “slight excitation is observed with increased reaction to touching or to sound stimuli”. Besides, the minimal effective dose in the series on mouse [3] (oral or intraperitoneal, read-out: dose from which slight excitation is observed) is 16 mg/kg. Besides, in the series with mouse [4] (mouse, 4, 8, 16, 32, 64 and 128 mg/kg), the “change in conditioned inhibition” value is “no change was observed in conditioned inhibition”. Moreover, the “performance of the animals in 4 plate test” value in the series with mouse [4] (mouse, 4 to 128 mg/kg) is reported as “a slight increase in the performance of the animals”. In addition, in the series with mice, the “effects of oxotremorine (hypothermia, tremors, tears, hypersalivation, defecation)” value was “unchanged”. Also, the “change in time to fall asleep and sleeping period” value in the series with rat [5] and in the series on mouse [6] was “did not produce any change in the time taken to fall asleep or in the sleeping period” each time. In addition, in the series on rats, the “change in reserpine-induced hypothermia or palpebral ptosis” value was “did not produce any change in the hypothermia or palpebral ptosis”. In addition, in the series with rat [7], the “ratio LD50/ED 50” value was “over 10/1”. Moreover, the LD50 in series [8] (ip, intraperitoneal) was above 300 mg/kg; in series [8] (oral), above 300 mg/kg.
